What was measured:
Assay in all cases: relative viability (nuclei count vs DMSO), 5 days (fraction); higher = more cells survive
IA-LM = test system: IA-LM
Method in brief: (§1)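 Relative viability divides the nuclei count in treated wells by that in vehicle wells. Lung cancer cell lines were seeded in 1536-well plates, dosed by pin tool the next day, and fixed and stained after 5 days in one step with final 0.05% Triton X-100, 1% formaldehyde and 1 ug/ml Hoechst. Dosing was a single drug or a fixed anchor-drug dose plus five library-drug doses (not always all listed) in √10 steps, and values are medians of duplicate plates imaged at 4×.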

LC-2-ad = test system: LC-2-ad
Method in brief: as §1

Calu-6 = test system: Calu-6
Method in brief: as §1

EKVX = test system: EKVX
Method in brief: as §1

NCI-H1703 = test system: NCI-H1703
Method in brief: as §1

A549 = test system: A549
Method in brief: as §1

ChaGo-K-1 = test system: ChaGo-K-1
Method in brief: as §1

EBC-1 = test system: EBC-1
Method in brief: as §1

NCI-H1299 = test system: NCI-H1299
Method in brief: as §1

NCI-H1666 = test system: NCI-H1666
Method in brief: as §1

Cc1csc(=NC2CCCCC2)n1/N=C/c1ccc(O)c(O)c1O [MIM1] + CC1(C)CCC(c2ccc(Cl)cc2)=C(CN2CCN(c3ccc(C(=O)NS(=O)(=O)c4ccc(N[C@H](CCN5CCOCC5)CSc5ccccc5)c(S(=O)(=O)C(F)(F)F)c4)cc3)CC2)C1 [Navitoclax] (partner 0.5 µM) was tested, and the relative viability (IA-LM; first compound 0.2 µM) was 0.588, the relative viability (IA-LM; first compound 0.6325 µM) was 0.713 and the relative viability (IA-LM; first compound 2 µM) was 0.721. The relative viability (IA-LM; first compound 6.325 µM) was 0.195, the relative viability (IA-LM; first compound 20 µM) was 0.0808 and the relative viability (LC-2-ad; first compound 0.2 µM) was 0.491. It also gave a relative viability (LC-2-ad; first compound 0.6325 µM) of 0.516, a relative viability (LC-2-ad; first compound 2 µM) of 0.498 and a relative viability (LC-2-ad; first compound 6.325 µM) of 0.251. It also gave a relative viability (LC-2-ad; first compound 20 µM) of 0.135, a relative viability (Calu-6; first compound 0.2 µM) of 0.772 and a relative viability (Calu-6; first compound 0.6325 µM) of 0.93. For the same compound, the relative viability (Calu-6; first compound 2 µM) was 0.857, the relative viability (Calu-6; first compound 6.325 µM) was 0.205 and the relative viability (Calu-6; first compound 20 µM) was 0.135. It also gave a relative viability (EKVX; first compound 0.2 µM) of 0.922, a relative viability (EKVX; first compound 0.6325 µM) of 1.07 and a relative viability (EKVX; first compound 2 µM) of 0.965. For the same compound, the relative viability (EKVX; first compound 6.325 µM) was 0.761, the relative viability (EKVX; first compound 20 µM) was 0.293 and the relative viability (NCI-H1703; first compound 0.2 µM) was 0.91. For the same compound, the relative viability (NCI-H1703; first compound 0.6325 µM) was 1.15, the relative viability (NCI-H1703; first compound 2 µM) was 1.03 and the relative viability (NCI-H1703; first compound 6.325 µM) was 0.135. For the same compound, the relative viability (NCI-H1703; first compound 20 µM) was 0.117, the relative viability (A549; first compound 0.2 µM) was 1.17 and the relative viability (A549; first compound 0.6325 µM) was 1.24. It also gave a relative viability (A549; first compound 2 µM) of 1.3, a relative viability (A549; first compound 6.325 µM) of 0.843 and a relative viability (A549; first compound 20 µM) of 0.0781. The relative viability (ChaGo-K-1; first compound 0.2 µM) was 1.14, the relative viability (ChaGo-K-1; first compound 0.6325 µM) was 0.741 and the relative viability (ChaGo-K-1; first compound 2 µM) was 0.943. The relative viability (ChaGo-K-1; first compound 6.325 µM) was 0.717, the relative viability (ChaGo-K-1; first compound 20 µM) was 0.31 and the relative viability (EBC-1; first compound 0.2 µM) was 0.417. For the same compound, the relative viability (EBC-1; first compound 0.6325 µM) was 0.475, the relative viability (EBC-1; first compound 2 µM) was 0.367 and the relative viability (EBC-1; first compound 6.325 µM) was 0.227. The relative viability (EBC-1; first compound 20 µM) was 0.166, the relative viability (NCI-H1299; first compound 0.2 µM) was 1.06 and the relative viability (NCI-H1299; first compound 0.6325 µM) was 1.07. It also gave a relative viability (NCI-H1299; first compound 2 µM) of 1.04, a relative viability (NCI-H1299; first compound 6.325 µM) of 1.05 and a relative viability (NCI-H1299; first compound 20 µM) of 0.974. For the same compound, the relative viability (NCI-H1666; first compound 0.2 µM) was 1, the relative viability (NCI-H1666; first compound 0.6325 µM) was 1.15 and the relative viability (NCI-H1666; first compound 2 µM) was 1.11. For the same compound, the relative viability (NCI-H1666; first compound 6.325 µM) was 0.727 and the relative viability (NCI-H1666; first compound 20 µM) was 0.667.
With Cc1cn(-c2cc(NC(=O)c3ccc(C)c(Nc4nccc(-c5cccnc5)n4)c3)cc(C(F)(F)F)c2)cn1 [Nilotinib] + CC1(C)CCC(c2ccc(Cl)cc2)=C(CN2CCN(c3ccc(C(=O)NS(=O)(=O)c4ccc(N[C@H](CCN5CCOCC5)CSc5ccccc5)c(S(=O)(=O)C(F)(F)F)c4)cc3)CC2)C1 [Navitoclax] (partner 0.5 µM) the relative viability (IA-LM; first compound 0.001 µM) was 0.499, the relative viability (IA-LM; first compound 0.003162 µM) was 0.603 and the relative viability (IA-LM; first compound 0.01 µM) was 0.795. The relative viability (IA-LM; first compound 0.03162 µM) was 0.747, the relative viability (IA-LM; first compound 0.1 µM) was 0.889 and the relative viability (LC-2-ad; first compound 0.001 µM) was 0.376. For the same compound, the relative viability (LC-2-ad; first compound 0.003162 µM) was 0.396, the relative viability (LC-2-ad; first compound 0.01 µM) was 0.467 and the relative viability (LC-2-ad; first compound 0.03162 µM) was 0.339. The relative viability (LC-2-ad; first compound 0.1 µM) was 0.365, the relative viability (Calu-6; first compound 0.001 µM) was 0.781 and the relative viability (Calu-6; first compound 0.003162 µM) was 0.845. For the same compound, the relative viability (Calu-6; first compound 0.01 µM) was 1.05, the relative viability (Calu-6; first compound 0.03162 µM) was 0.641 and the relative viability (Calu-6; first compound 0.1 µM) was 0.929. It also gave a relative viability (EKVX; first compound 0.001 µM) of 0.795, a relative viability (EKVX; first compound 0.003162 µM) of 1.29 and a relative viability (EKVX; first compound 0.01 µM) of 1.42. For the same compound, the relative viability (EKVX; first compound 0.03162 µM) was 0.764, the relative viability (EKVX; first compound 0.1 µM) was 1.21 and the relative viability (NCI-H1703; first compound 0.001 µM) was 1.01. For the same compound, the relative viability (NCI-H1703; first compound 0.003162 µM) was 0.482, the relative viability (NCI-H1703; first compound 0.01 µM) was 0.325 and the relative viability (NCI-H1703; first compound 0.03162 µM) was 0.229. It also gave a relative viability (A549; first compound 0.001 µM) of 1.2, a relative viability (A549; first compound 0.003162 µM) of 1.47 and a relative viability (A549; first compound 0.01 µM) of 1.14. For the same compound, the relative viability (A549; first compound 0.03162 µM) was 0.789, the relative viability (ChaGo-K-1; first compound 0.001 µM) was 1.47 and the relative viability (ChaGo-K-1; first compound 0.003162 µM) was 0.924. The relative viability (ChaGo-K-1; first compound 0.01 µM) was 1.06, the relative viability (ChaGo-K-1; first compound 0.03162 µM) was 0.754 and the relative viability (ChaGo-K-1; first compound 0.1 µM) was 0.787. For the same compound, the relative viability (EBC-1; first compound 0.001 µM) was 0.351, the relative viability (EBC-1; first compound 0.003162 µM) was 0.373 and the relative viability (EBC-1; first compound 0.01 µM) was 0.332. The relative viability (EBC-1; first compound 0.03162 µM) was 0.289, the relative viability (EBC-1; first compound 0.1 µM) was 0.186 and the relative viability (NCI-H1299; first compound 0.003162 µM) was 1.08. The relative viability (NCI-H1299; first compound 0.01 µM) was 1.13, the relative viability (NCI-H1299; first compound 0.03162 µM) was 1.07 and the relative viability (NCI-H1299; first compound 0.1 µM) was 1.03. For the same compound, the relative viability (NCI-H1666; first compound 0.001 µM) was 0.994, the relative viability (NCI-H1666; first compound 0.003162 µM) was 1.24 and the relative viability (NCI-H1666; first compound 0.01 µM) was 0.98. For the same compound, the relative viability (NCI-H1666; first compound 0.03162 µM) was 0.895 and the relative viability (NCI-H1666; first compound 0.1 µM) was 0.759.

— the supplement of paper PMC10307832
